{"source": "patent US20050070603A1", "about": "“Use of glycerides to alleviate symptoms of digestive disorders” (priority 2003, published 2005)", "test_system": "Irritable Bowel Syndrome symptoms (pain associated with intestinal gas, bloating and constipation)", "test": "Case report: patient suffering from IBS taking MCT orally", "assay_type": "in vivo, human", "method": "Over a period of 8 weeks, the patient increased the dose of MCT to approx. 15 mL (in approx. 240 mL of soymilk) per day to achieve complete symptomatic relief from IBS.", "data": [{"substance": "Caprylic triglyceride [Neobee 895]", "values": [{"measurement": "change in HDL, LDL and triglyceride levels", "setting": "after 10 months of use of MCT", "value": "no noticeable change"}, {"measurement": "adverse effects on continued use", "setting": "continued use, approx. 1 year", "value": "without any adverse effects"}, {"measurement": "continued relief from IBS symptoms", "setting": "continued use, approx. 1 year", "value": "complete relief from the IBS symptoms"}, {"measurement": "improvement of IBS symptoms", "setting": "initially, one teaspoon (approx. 5 mL) MCT as emulsion in soymilk (approx. 240 mL) per day, one patient", "value": "some improvement"}, {"measurement": "relief of IBS symptoms", "setting": "one tablespoon (approx. 15 mL) MCT per day, oral, in approx. 240 mL soymilk, dose increased over 8 weeks, one patient", "value": "complete relief of the symptoms"}]}]}
